From PMC5896373 (Molecular Pharmacology, 2018)

Assays:
P2X7R point mutant R206A = molecular target: T1, P2X7R point mutant R206A (Homo sapiens, UniProt Q99572, I21V/M24R/N16P/N25R/Q22R/R206A/R20V/S23N/T19I/Y26L); test: Two-electrode voltage clamp of ATP-evoked currents in Xenopus oocytes; type: cell-based; settings: mean ± S.E.M.
T1 construct: expressed in transfected cells; host or cells: Xenopus laevis oocytes (cRNA injection)
Method: (§1) Injected oocytes were stored at 16°C in ND96 buffer [in millimolar concentrations, NaCl 96, KCl 2, CaCl2 1.8, MgCl2 1, sodium pyruvate 5, and HEPES 5 (pH 7.6) supplemented with 50 μg/ml gentamycin and 50 μg/ml tetracycline]. Three to seven days postinjection two-electrode voltage clamp recordings were made from oocytes bathed in divalent-free ND96 buffer (in millimolar concentrations, NaCl 96, KCl 2, sodium pyruvate 5, HEPES 5, and 0.1 flufenamic acid, pH 7.6). Oocytes were voltage clamped at a holding potential of −60 mV with a GeneClamp500B amplifier (Molecular Devices).
(§2) Electrophysiological traces were digitized with a Digidata 1322A and collected using pCLAMP 8.2 software (Molecular Devices, Menlo Park, CA). An EC90 concentration of ATP was used to test antagonist sensitivity for the P2X7-2Nβ and mutant receptors [ATP sensitivity of the chimeras and mutants are reported in [Allsopp et al. (2017)]] to standardize for any changes in ATP sensitivity.
(§3) Inhibition by the antagonists was expressed as the percentage of the peak current amplitude of an EC90 concentration of ATP recorded before the application of antagonist (ATP gave reproducible responses to ATP in the absence of antagonist). […] Any significant differences from the P2X7-2Nβ control were calculated by one-way analysis of variance, followed by Dunnett’s test (using GraphPad Prism 6). […]

[1] = tested on: P2X7R left flipper point mutant K281A; test: as above; type: cell-based, human
Method: as §1, §2, §3

P2X7R point mutant K193A = molecular target: T2, P2X7R point mutant K193A (Homo sapiens, UniProt Q99572, I21V/K193A/M24R/N16P/N25R/Q22R/R20V/S23N/T19I/Y26L); test: as above; type: cell-based
T2 construct: expressed in transfected cells; host or cells: Xenopus laevis oocytes (cRNA injection)
Method: as §1, §2, §3

other P2XR subtypes = tested on: other P2XR subtypes; design: method as in North, 2002; Kaczmarek-Hajek et al., 2012; settings: ref North, 2002, Kaczmarek-Hajek et al., 2012; cited from earlier work
P2X7R = tested on: P2X7R; design: method as in North, 2002; Kaczmarek-Hajek et al., 2012; settings: physiologic concentrations of calcium and magnesium; ref North, 2002; Kaczmarek-Hajek et al., 2012; cited from earlier work
[2] = tested on: P2X7R left flipper point mutant T282A; test: Two-electrode voltage clamp of ATP-evoked currents in Xenopus oocytes; type: cell-based, human
Method: (§4) The production of the correct mutations and absence of coding errors was determined by DNA sequencing (Automated ABI Sequencing Service, University of Leicester, UK). cRNA was generated for the mutants and 50 nl (50 ng) was injected into manually defoliculated stage V Xenopus laevis oocytes using an Inject+Matic microinjector (J.A. Gabay, Inject+Matic, Geneva, Switzerland). Injected oocytes were stored at 16°C in ND96 buffer [in millimolar concentrations, NaCl 96, KCl 2, CaCl2 1.8, MgCl2 1, sodium pyruvate 5, and HEPES 5 (pH 7.6) supplemented with 50 μg/ml gentamycin and 50 μg/ml tetracycline]. Three to seven days postinjection two-electrode voltage clamp recordings were made from oocytes bathed in divalent-free ND96 buffer (in millimolar concentrations, NaCl 96, KCl 2, sodium pyruvate 5, HEPES 5, and 0.1 flufenamic acid, pH 7.6). Oocytes were voltage clamped at a holding potential of −60 mV with a GeneClamp500B amplifier (Molecular Devices).
(§5) Inhibition by the antagonists was expressed as the percentage of the peak current amplitude of an EC90 concentration of ATP recorded before the application of antagonist (ATP gave reproducible responses to ATP in the absence of antagonist). Inhibition curves were fitted with the Hill equation (variable slope) using GraphPad Prism 6 (GraphPad Software, San Diego, CA). […]

[3] = tested on: P2X7R left flipper point mutant D280A; test: as above; type: cell-based, human
Method: as §4, §5

[4] = tested on: P2X7R left flipper point mutant N284A; test: as above; type: cell-based, human
Method: as §4, §5

[5] = molecular target: T3, chimeric P2X7R with left flipper 280–284 of P2X4 (Homo sapiens, UniProt Q99572, D280T/I21V/K281R/M24R/N16P/N25R/N284E/Q22R/R20V/S23N/T19I/T282D/T283V/Y26L); settings: chimera 280–284 of P2X4
T3 sequence (Q99572 1-595 N16P/T19I/R20V/I21V/Q22R/S23N/M24R/N25R/Y26L/D280T/K281R/T282D/T283V/N284E): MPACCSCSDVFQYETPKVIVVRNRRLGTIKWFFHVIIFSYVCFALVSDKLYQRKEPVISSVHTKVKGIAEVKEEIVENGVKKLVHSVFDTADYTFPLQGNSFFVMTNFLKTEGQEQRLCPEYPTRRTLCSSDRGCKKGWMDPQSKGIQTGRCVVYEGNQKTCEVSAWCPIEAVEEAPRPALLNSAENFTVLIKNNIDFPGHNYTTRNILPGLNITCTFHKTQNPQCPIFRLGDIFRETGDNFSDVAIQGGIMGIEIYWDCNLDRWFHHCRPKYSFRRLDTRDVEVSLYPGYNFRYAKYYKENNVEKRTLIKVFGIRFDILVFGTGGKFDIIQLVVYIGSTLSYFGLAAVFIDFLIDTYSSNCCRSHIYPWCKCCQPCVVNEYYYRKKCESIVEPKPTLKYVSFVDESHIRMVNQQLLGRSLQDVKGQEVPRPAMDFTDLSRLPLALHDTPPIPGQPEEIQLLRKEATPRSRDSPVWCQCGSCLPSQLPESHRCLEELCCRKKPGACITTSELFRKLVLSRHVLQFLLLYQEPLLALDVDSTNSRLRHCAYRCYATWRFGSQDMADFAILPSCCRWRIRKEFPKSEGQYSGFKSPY
Method: as §4
Inhibition by the antagonists was expressed as the percentage of the peak current amplitude of an EC90 concentration of ATP recorded before the application of antagonist (ATP gave reproducible responses to ATP in the absence of antagonist). Inhibition curves were fitted with the Hill equation (variable slope) using GraphPad Prism 6 (GraphPad Software, San Diego, CA). […] Individual concentration-response curves were generated for individual experiments, and statistical analysis was carried out on the data generated. […] Data are shown as mean ± S.E.M. In all cases n ≥ 3 for all data points.

[6] = tested on: P2X7R left flipper point mutant T283A; test: Two-electrode voltage clamp of ATP-evoked currents in Xenopus oocytes; type: cell-based, human
Method: as §1, §2, §3

[7] = molecular target: T4, chimeric P2X7/1 receptor 279–285 (left flipper) (Homo sapiens, UniProt Q99572, DEL279-281/I21V/M24R/N16P/N25R/N284E/Q22R/R20V/S23N/T19I/T282Y/T283E/V285K/Y26L); design: method as in Allsopp et al., 2017; settings: chimera 279–285; ref Allsopp et al., 2017; cited from earlier work
T4 construct: expressed in transfected cells; host or cells: Xenopus laevis oocytes (cRNA injection)
T4 sequence (Q99572 with tags, fused parts or gaps N16P/T19I/R20V/I21V/Q22R/S23N/M24R/N25R/Y26L/DEL279-281/T282Y/T283E/N284E/V285K): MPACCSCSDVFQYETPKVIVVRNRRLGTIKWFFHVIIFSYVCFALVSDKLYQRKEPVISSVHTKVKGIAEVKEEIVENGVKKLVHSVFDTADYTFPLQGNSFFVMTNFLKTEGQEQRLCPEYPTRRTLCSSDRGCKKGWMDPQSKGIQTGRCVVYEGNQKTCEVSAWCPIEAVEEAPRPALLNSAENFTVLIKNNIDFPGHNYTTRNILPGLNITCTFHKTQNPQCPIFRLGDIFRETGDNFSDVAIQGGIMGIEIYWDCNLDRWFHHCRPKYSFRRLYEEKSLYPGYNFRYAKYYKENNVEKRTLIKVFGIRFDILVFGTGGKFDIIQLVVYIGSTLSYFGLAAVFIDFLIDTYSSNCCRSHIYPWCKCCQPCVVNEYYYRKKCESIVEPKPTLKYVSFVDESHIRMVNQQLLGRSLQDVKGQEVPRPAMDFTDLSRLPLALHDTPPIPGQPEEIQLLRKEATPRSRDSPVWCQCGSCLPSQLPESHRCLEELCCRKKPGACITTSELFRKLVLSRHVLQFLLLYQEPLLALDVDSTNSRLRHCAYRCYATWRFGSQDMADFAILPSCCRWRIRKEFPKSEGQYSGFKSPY

T2 sequence (Q99572 whole entry N16P/T19I/R20V/I21V/Q22R/S23N/M24R/N25R/Y26L/K193A): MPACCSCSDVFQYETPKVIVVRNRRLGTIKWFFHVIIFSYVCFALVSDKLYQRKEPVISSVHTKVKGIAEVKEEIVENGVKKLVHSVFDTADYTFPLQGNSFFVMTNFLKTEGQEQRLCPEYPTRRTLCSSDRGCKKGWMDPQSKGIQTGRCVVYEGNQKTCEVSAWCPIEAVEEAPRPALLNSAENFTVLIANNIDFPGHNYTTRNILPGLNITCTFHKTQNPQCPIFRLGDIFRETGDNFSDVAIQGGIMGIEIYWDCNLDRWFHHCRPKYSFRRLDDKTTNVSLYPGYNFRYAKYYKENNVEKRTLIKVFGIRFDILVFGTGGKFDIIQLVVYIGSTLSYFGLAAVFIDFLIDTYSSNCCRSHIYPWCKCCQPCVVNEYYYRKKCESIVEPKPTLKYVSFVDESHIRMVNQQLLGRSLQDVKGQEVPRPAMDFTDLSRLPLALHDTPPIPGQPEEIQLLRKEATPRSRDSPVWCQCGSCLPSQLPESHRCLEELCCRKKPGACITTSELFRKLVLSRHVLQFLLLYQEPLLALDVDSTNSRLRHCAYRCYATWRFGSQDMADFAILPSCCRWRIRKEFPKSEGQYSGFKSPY
T1 sequence (Q99572 whole entry N16P/T19I/R20V/I21V/Q22R/S23N/M24R/N25R/Y26L/R206A): as the sequence (Q99572 whole entry N16P/T19I/R20V/I21V/Q22R/S23N/M24R/N25R/Y26L/K193A) above, with A193K, R206A counted along it

SMILES: Nc1ncnc2c1ncn2[C@@H]1O[C@H](COP(=O)(O)OP(=O)(O)OP(=O)(O)O)[C@@H](O)[C@H]1O [ATP]
- ATP sensitivity pEC50 (P2X7R point mutant R206A): 4.33 ± 0.06
- fold decrease in ATP sensitivity [1]: 2 fold
- amplitude of ATP-evoked responses (P2X7R point mutant K193A): < 100 nA
- EC50 (other P2XR subtypes): 1 to 30 µM
- EC50 (P2X7R): 300 to 1000 µM
- effect on ATP sensitivity [2]: no effect
- fold increase in ATP potency [3]: 15 fold
- effect on ATP sensitivity [4]: no effect
- fold increase in ATP sensitivity/potency [5]: ~15 fold
- fold decrease in ATP sensitivity [6]: 3.4 fold
- fold increase in sensitivity to ATP [7]: ~30 fold
